Source: ChEMBL document CHEMBL1152427, “Antimicrobial natural products as beta-ketoacyl-acyl carrier protein synthase III inhibitors” (Bioorg Med Chem, 2009)
Values after ≈ are worked out from the molar mass of the structure shown.

What was measured:
Staphylococcus aureus [1] = assay: Antibacterial activity against Staphylococcus aureus KCTC 1621 after 20 hrs by twofold serial broth dilution method; format: functional; conditions: KCTC 1621, 20 h
Staphylococcus aureus [2] = assay: Antibacterial activity against methicillin-resistant Staphylococcus aureus CCARM 3114 after 20 hrs by twofold serial broth dilution method; format: functional; conditions: CCARM 3114, 20 h
[3] = biological target: T1, 3-oxoacyl-[acyl-carrier-protein] synthase 3 (Escherichia coli) (UniProt C3TDZ2); assay: Binding affinity to Escherichia coli KAS3 expressed in Escherichia coli BL21 (DE3) by NMR analysis
T1 sequence (whole entry): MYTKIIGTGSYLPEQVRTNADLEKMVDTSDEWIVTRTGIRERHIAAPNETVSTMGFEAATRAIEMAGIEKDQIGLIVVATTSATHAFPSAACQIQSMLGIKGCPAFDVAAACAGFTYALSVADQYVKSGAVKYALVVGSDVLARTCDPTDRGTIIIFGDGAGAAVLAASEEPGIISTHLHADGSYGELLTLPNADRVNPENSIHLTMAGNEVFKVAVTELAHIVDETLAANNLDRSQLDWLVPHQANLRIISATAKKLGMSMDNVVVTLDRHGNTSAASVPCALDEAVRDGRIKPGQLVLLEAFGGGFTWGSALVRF

Enterococcus faecalis [4] = assay: Antibacterial activity against vancomycin-resistant Enterococcus faecalis clinical isolates after 20 hrs by twofold serial broth dilution method; format: functional
HaCaT [5] = assay: Cytotoxicity against human HaCaT cells assessed as cell morphology at 100 uM after 24 hrs by phase contrast microscopy; format: cell-based
HaCaT [6] = assay: Cytotoxicity against human HaCaT cells assessed as cell survival at 100 uM after 24 hrs by MTT assay; format: cell-based
Escherichia coli = assay: Antibacterial activity against Escherichia coli after 20 hrs by twofold serial broth dilution method; format: functional
Enterococcus faecalis [7] = assay: Antibacterial activity against Enterococcus faecalis KCTC 2011 after 20 hrs by twofold serial broth dilution method; format: functional; conditions: KCTC 2011, 20 h
[8] = Cytotoxicity against human HaCaT cells assessed as cell survival at 16 uM after 24 hrs by MTT assay; format: cell-based; conditions: read-out: Survival
[9] = Solubility of the compound; format: physicochemical

| Structure (SMILES) | MIC (Staphylococcus aureus [1]) | MIC (Staphylococcus aureus [2]) | K [3] | MIC (Enterococcus faecalis [4]) | Activity (HaCaT [5]) | Activity (HaCaT [6]) | MIC (Escherichia coli) | MIC (Enterococcus faecalis [7]) | viability at 24 h, 16 µM [8] | solubility [9] |
| --- | --- | --- | --- | --- | --- | --- | --- | --- | --- | --- |
| O=C(CCc1ccc(O)cc1)c1c(O)cc(O)cc1O [PHLORETIN] | 32 µM (≈ 8.78 µg/mL) | 16 µM (≈ 4.39 µg/mL) | 2.38 ×10⁷ /M | 128 µM (≈ 35.1 µg/mL) | Not Active | Not Active | 128 µM (≈ 35.1 µg/mL) | 128 µM (≈ 35.1 µg/mL) |  |  |
| O=c1c(O)c(-c2ccccc2)oc2ccc(O)cc12 | 16 µM (≈ 4.07 µg/mL) | 16 µM (≈ 4.07 µg/mL) | 1.32 ×10⁴ /M | 256 µM (≈ 65.1 µg/mL) |  |  | > 1020 µM | 128 µM (≈ 32.5 µg/mL) | 90% | Insoluble |
| COc1ccc(-c2coc3cc(O[C@@H]4O[C@H](CO)[C@@H](O)[C@@H](O)[C@@H]4O)cc(O)c3c2=O)cc1 | > 1020 µM | > 1020 µM | 5.6 ×10⁶ /M | > 1020 µM |  |  | > 1020 µM | > 1020 µM |  |  |
| C=C/C(C)=C/[C@@]1(C)SC(=O)C(C)=C1O [THIOLACTOMYCIN] | 256 µM (≈ 53.8 µg/mL) | 128 µM (≈ 26.9 µg/mL) | 1.18 ×10⁴ /M | 128 µM (≈ 26.9 µg/mL) |  |  | 128 µM (≈ 26.9 µg/mL) | 256 µM (≈ 53.8 µg/mL) |  |  |
| O=c1c(O)c(-c2ccc(O)cc2)oc2ccc(O)cc12 | > 1020 µM | > 1020 µM | 6.22 ×10⁶ /M | > 1020 µM |  |  | > 1020 µM | > 1020 µM |  |  |
